Source: US12076307B2, “Compositions for prevention or treatment of acute radiation syndrome and other radiation exposure” (priority 2017, dated 2024)

Assays:
[1] = Safety assessment in clinical trials; format: in vivo, human
Description: AEs that were observed involved mild symptoms unrelated to EC-18 administration. […] In the clinical studies with pancreatic cancer patients, there were no SAEs associated with EC-18 administered twice daily (BID) for a total of 1000 mg/day.

[2] = In vitro metabolite screening, rat liver microsomes; format: in vitro ADME; conditions: N=2
Description: (§1) [^14C]EC-18 or the positive control (7-ethoxycoumarin; 7-EC) reacted with microsomes prepared from hepatocytes of rats, dogs, monkeys, and humans, with or without cofactors, for 60 and 120 min. Then, the residual EC-18 concentration over time was measured by LC-RID ([^14C]EC-18) or LC-MS/MS (7-EC) (FIG. 63 and FIG. 64).
(§2) The LC-RID chromatographic profiles of radioactive metabolites produced in the 2-hr incubation reaction mixtures of the same test systems A, B, and C used to assess the metabolic and non-metabolic elimination rates of EC-18 were compared to the LC-UV chromatographic profiles of the synthetic reference material. […] The relative radioactivity of EC-18 accounted for 42-67% of total radioactivity. The peaks designated as M2, M3, and M5 were also determined in all species, and their relative radioactivity accounted for 12-34% of total radioactivity. The peaks of M4 and M6 were determined in monkeys and humans. M1 was abundantly detected in all species, but it was assumed to be a peak of early elution. The LC-UV chromatograms of reaction mixtures in each test system (FIGS. 65A-65C) and the relative radioactivity of the screened metabolites are shown in Table 25.

CYP2C19 = CYP2C19 (Homo sapiens, UniProt P33261); assay: CYP enzyme inhibition in human liver microsomes, CYP2C19
CYP2C19, sequence (P33261 whole entry): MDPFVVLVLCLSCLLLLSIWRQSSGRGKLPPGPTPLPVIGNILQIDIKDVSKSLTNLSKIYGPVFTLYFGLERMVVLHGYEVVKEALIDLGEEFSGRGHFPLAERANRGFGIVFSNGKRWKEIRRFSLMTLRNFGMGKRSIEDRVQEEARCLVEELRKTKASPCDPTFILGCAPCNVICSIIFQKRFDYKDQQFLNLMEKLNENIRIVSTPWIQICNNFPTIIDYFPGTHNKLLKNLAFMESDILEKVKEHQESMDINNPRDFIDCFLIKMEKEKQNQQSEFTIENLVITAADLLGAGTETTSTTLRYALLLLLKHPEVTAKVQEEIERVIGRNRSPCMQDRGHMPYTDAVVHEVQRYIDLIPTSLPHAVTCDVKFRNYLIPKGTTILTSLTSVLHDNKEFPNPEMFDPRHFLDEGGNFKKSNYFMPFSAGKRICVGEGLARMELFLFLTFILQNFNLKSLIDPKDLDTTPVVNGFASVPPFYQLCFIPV
Source text: CYP1A2, CYP2C9, CYP2C19, CYP2D6, and CYP3A4 are the CYP subfamily, which plays a critical role in the metabolism of most drugs.

Beagle dog = assay: Single-dose toxicity, Beagle dog; format: in vivo; conditions: Oral, Days 1, 5, 9, 13
Source text: Various toxicology studies have been performed. All studies were GLP-compliant unless otherwise noted.

[3] = Plasma and lymphatic concentrations of EC-18 in beagle dogs after single administration; format: in vivo, dog; conditions: for Tmax / AUC(0-t) / half-life / Cmax: male, beagle, dog; for Tmax: po
Description: A single dose of EC-18 (1000, 2000, 4000 mg/kg by mouth or 100 mg/kg IV) was administered to male beagle dogs in fed condition and the concentration of EC-18 in plasma and lymph was measured using UHPLC-MS/MS.

OATP1B3 = target: T1, OATP1B3 (Homo sapiens, UniProt Q9NPD5); assay: Drug transporter inhibition, OATP1B3; format: in vitro ADME; conditions: 100 nM [3H] estradiol-17β-D-glucuronide; transfected HEK-293 cells
T1 construct: expressed in transfected cells; host or cells: HEK-293
T1 sequence (Q9NPD5 whole entry, species assumed): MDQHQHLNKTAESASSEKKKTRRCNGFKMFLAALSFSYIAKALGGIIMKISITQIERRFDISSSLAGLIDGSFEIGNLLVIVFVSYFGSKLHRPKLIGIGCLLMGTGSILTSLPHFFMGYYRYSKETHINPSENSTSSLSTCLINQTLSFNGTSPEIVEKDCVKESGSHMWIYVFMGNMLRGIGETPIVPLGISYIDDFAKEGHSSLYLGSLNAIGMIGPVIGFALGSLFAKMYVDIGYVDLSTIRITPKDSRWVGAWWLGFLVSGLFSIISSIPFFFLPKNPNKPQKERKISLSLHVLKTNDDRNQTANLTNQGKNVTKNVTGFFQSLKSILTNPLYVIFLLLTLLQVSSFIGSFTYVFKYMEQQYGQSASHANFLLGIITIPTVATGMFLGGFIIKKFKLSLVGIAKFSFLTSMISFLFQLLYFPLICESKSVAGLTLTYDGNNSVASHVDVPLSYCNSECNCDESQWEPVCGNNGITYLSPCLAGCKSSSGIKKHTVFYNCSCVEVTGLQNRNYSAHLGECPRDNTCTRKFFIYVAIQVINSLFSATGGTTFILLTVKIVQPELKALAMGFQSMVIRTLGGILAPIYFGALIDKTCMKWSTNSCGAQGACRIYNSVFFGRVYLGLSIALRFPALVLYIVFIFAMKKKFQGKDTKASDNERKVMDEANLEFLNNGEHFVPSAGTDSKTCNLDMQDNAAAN
Description: This study examined the potential of EC-18 to interact with the transporter proteins that have been known to be involved in the absorption of commercially available drugs. EC-18 was pre-incubated with HEK-293 cells and LLC-PK1 cells that were transfected with the genes of most drug transporters as follows: OATP1B1, OATP1B3, OAT1, OAT3 and OCT2, and BCRP and P-gp, respectively.

[4] = In vitro metabolite screening, monkey liver microsomes; format: in vitro ADME; conditions: NHP, N=2
Description: as §1, §2

[5] = Plasma concentrations of EC-18 in non-irradiated and irradiated mice; format: in vivo; conditions: male, Balb/c, mouse, po
Description: A day after 6.11 Gy gamma-radiation, both irradiated and non-irradiated male Balb/c mice (n=5) were orally administered daily with 50, 100, 250 or 500 mg/kg of EC-18 up to 14 days and analyzed for PK parameters on days 7 and 14 post-radiation (Table 21).

[6] = A (NADPH added), [14C]EC-18 2 hrs
[7] = B (NADPH, PAPS, UDPGA added), 2 hrs
[8] = 50 mg/kg, day 7, 50 mg/kg oral daily, Irradiated 6.11 Gy
[9] = 50 mg/kg, day 7, 50 mg/kg oral daily, Non-irradiated
[10] = 50 mg/kg, day 14, 50 mg/kg oral daily, Irradiated 6.11 Gy
[11] = 50 mg/kg, day 14, 50 mg/kg oral daily, Non-irradiated
[12] = 100 mg/kg, day 7, 100 mg/kg oral daily, Irradiated 6.11 Gy
[13] = 100 mg/kg, day 7, 100 mg/kg oral daily, Non-irradiated
[14] = 100 mg/kg, day 14, 100 mg/kg oral daily, Irradiated 6.11 Gy
[15] = 100 mg/kg, day 14, 100 mg/kg oral daily, Non-irradiated
[16] = 250 mg/kg, day 7, 250 mg/kg oral daily, Irradiated 6.11 Gy
[17] = 250 mg/kg, day 7, 250 mg/kg oral daily, Non-irradiated
[18] = 250 mg/kg, day 14, 250 mg/kg oral daily, Irradiated 6.11 Gy
[19] = 250 mg/kg, day 14, 250 mg/kg oral daily, Non-irradiated
[20] = 500 mg/kg, day 7, 500 mg/kg oral daily, Irradiated 6.11 Gy
[21] = 500 mg/kg, day 7, 500 mg/kg oral daily, Non-irradiated
[22] = 500 mg/kg, day 14, 500 mg/kg oral daily, Irradiated 6.11 Gy
[23] = 500 mg/kg, day 14, 500 mg/kg oral daily, Non-irradiated

In the case of `CCCCC/C=C\C/C=C\CCCCCCCC(=O)OC(COC(C)=O)COC(=O)CCCCCCCCCCCCCCC` (centres unmarked) [EC-18, 1-palmitoyl-2-linoleoyl-3-acetylglycerol], the adverse events ([1]; five clinical trials) is reported as “no adverse events (AEs) that could be considered serious or severe”, the “SAEs associated with EC-18” value ([1]; pancreatic cancer patients, BID, total 1000 mg/day) is reported as “no SAEs” and the accumulation ([1]; single- and multiple-dose 500 to 4000 mg) is reported as “no accumulation with repeated-dosing was observed”. The “Mean Peak Area in LC-RID” value [2, 6] was 61.8%, the “Mean Peak Area in LC-RID” value [2, 7] was 51.9% and the “Mean Peak Area in LC-RID” value ([2]; C (no cofactor added), 2 hrs) was 58.8%. For the same compound, the IC50 (CYP2C19) was 83.6 µM, the Approximate lethal dose (Beagle dog) was “dose: >2000 mg/kg” and the mortality (Beagle dog; 0, 500, 1000, 1500, 2000 mg/kg) was “No dead animals”. The findings (Beagle dog; up to 2000 mg/kg) was “No specific findings”, the F ([3]; 1000 mg/kg po, Plasma) was 7.8% and the F ([3]; 2000 mg/kg po, Plasma) was 6.3%. The F ([3]; 4000 mg/kg po, Plasma) was 23.6%, the Tmax ([3]; lymph, 1000 mg/kg, 1000 mg/kg po, Lymph, read-out: Tmax) was 3.3 ± 0.9 h and the Tmax ([3]; lymph, 1000 mg/kg, 1000 mg/kg po, lymph, read-out: median Tmax) was 4 h. It also gave a Tmax ([3]; lymph, 2000 mg/kg, 2000 mg/kg po, Lymph, read-out: Tmax) of 3.3 ± 0.9 h, a Tmax ([3]; lymph, 2000 mg/kg, 2000 mg/kg po, lymph, read-out: median Tmax) of 4 h and a Tmax ([3]; lymph, 4000 mg/kg, 4000 mg/kg po, Lymph, read-out: Tmax) of 3.3 ± 1.9 h. For the same compound, the Tmax ([3]; lymph, 4000 mg/kg, 4000 mg/kg po, lymph, read-out: median Tmax) was 2 h, the Tmax ([3]; plasma, 1000 mg/kg, 1000 mg/kg po, Plasma, read-out: Tmax) was 1.3 h and the Tmax ([3]; plasma, 2000 mg/kg, 2000 mg/kg po, Plasma, read-out: Tmax) was 1.3 h. For the same compound, the Tmax ([3]; plasma, 4000 mg/kg, 4000 mg/kg po, Plasma, read-out: Tmax) was 6.7 h, the AUC(0-t) ([3]; 100 mg/kg IV, Plasma) was 7540 ± 1860 ng·h/mL and the half-life ([3]; 100 mg/kg IV, Plasma) was 13.9 ± 2.3 h. It also gave an AUC(0-t) ([3]; 1000 mg/kg po, Lymph) of 118000 ± 16700 ng·h/mL, a Cmax ([3]; 1000 mg/kg po, Lymph) of 35100 ± 5160 ng/mL and an AUC(0-t) ([3]; 1000 mg/kg po, Plasma) of 5800 ± 2810 ng·h/mL. It also gave a Cmax ([3]; 1000 mg/kg po, Plasma) of 1750 ± 710 ng/mL, an AUC(0-t) ([3]; 2000 mg/kg po, Lymph) of 389000 ± 125000 ng·h/mL and a Cmax ([3]; 2000 mg/kg po, Lymph) of 40100 ± 8620 ng/mL. The AUC(0-t) ([3]; 2000 mg/kg po, Plasma) was 9490 ± 3850 ng·h/mL, the Cmax ([3]; 2000 mg/kg po, Plasma) was 2110 ± 750 ng/mL and the AUC(0-t) ([3]; 4000 mg/kg po, Lymph) was 431000 ± 81300 ng·h/mL. The Cmax ([3]; 4000 mg/kg po, Lymph) was 46600 ± 1730 ng/mL, the half-life ([3]; 4000 mg/kg po, Lymph) was 3.3 ± 0.2 h and the AUC(0-t) ([3]; 4000 mg/kg po, Plasma) was 71100 ± 31700 ng·h/mL. For the same compound, the Cmax ([3]; 4000 mg/kg po, Plasma) was 6760 ± 3330 ng/mL, the IC50 (OATP1B3) was greater than 32 µM and the “Mean Peak Area in LC-RID” value [4, 6] was 46.8%. For the same compound, the “Mean Peak Area in LC-RID” value [4, 7] was 46.0%, the “Mean Peak Area in LC-RID” value ([4]; C (no cofactor added), 2 hrs) was 41.8% and the AUC(0-t) [5, 8] was 39.5 ± 14.8 ng·h/mL. For the same compound, the Cmax [5, 8] was 7.8 ± 3.4 ng/mL, the Tmax [5, 8] was 0.4 ± 0.3 h and the AUC(0-t) [5, 9] was 21.6 ± 11.7 ng·h/mL. For the same compound, the Cmax [5, 9] was 2.7 ± 1.4 ng/mL, the Tmax [5, 9] was 2.8 ± 2.4 h and the AUC(0-t) [5, 10] was 8.6 ± 3.7 ng·h/mL. The Cmax [5, 10] was 1.9 ± 0.6 ng/mL, the Tmax [5, 10] was 3.1 ± 4.5 h and the AUC(0-t) [5, 11] was 38.5 ± 10.3 ng·h/mL. It also gave a Cmax [5, 11] of 4.1 ± 1.4 ng/mL, a Tmax [5, 11] of 7.8 ± 8.4 h and an AUC(0-t) [5, 12] of 41.3 ± 12.1 ng·h/mL. The Cmax [5, 12] was 9.8 ± 2.9 ng/mL, the Tmax [5, 12] was 0.7 ± 0.2 h and the AUC(0-t) [5, 13] was 25.3 ± 7.1 ng·h/mL. The Cmax [5, 13] was 9.7 ± 4.7 ng/mL, the Tmax [5, 13] was 5.2 ± 8.6 h and the AUC(0-t) [5, 14] was 80.8 ± 124 ng·h/mL. For the same compound, the Cmax [5, 14] was 17.2 ± 23.3 ng/mL, the Tmax [5, 14] was 1.8 ± 2.1 h and the AUC(0-t) [5, 15] was 51.3 ± 22.6 ng·h/mL. For the same compound, the Cmax [5, 15] was 12.8 ± 9.9 ng/mL, the Tmax [5, 15] was 7.6 ± 8.5 h and the AUC(0-t) [5, 16] was 73.9 ± 27.1 ng·h/mL. For the same compound, the Cmax [5, 16] was 31.4 ± 14.9 ng/mL, the Tmax [5, 16] was 0.6 ± 0.2 h and the AUC(0-t) [5, 17] was 40.7 ± 23.4 ng·h/mL. It also gave a Cmax [5, 17] of 16.4 ± 11.2 ng/mL, a Tmax [5, 17] of 0.6 ± 0.2 h and an AUC(0-t) [5, 18] of 16.2 ± 7.8 ng·h/mL. It also gave a Cmax [5, 18] of 17.9 ± 17.5 ng/mL, a Tmax [5, 18] of 0.6 ± 0.2 h and an AUC(0-t) [5, 19] of 76.6 ± 9.8 ng·h/mL. It also gave a Cmax [5, 19] of 19.4 ± 12.3 ng/mL, a Tmax [5, 19] of 2.8 ± 4.2 h and an AUC(0-t) [5, 20] of 123 ± 17.8 ng·h/mL. The Cmax [5, 20] was 60.7 ± 14.6 ng/mL, the Tmax [5, 20] was 0.7 ± 0.2 h and the AUC(0-t) [5, 21] was 57.1 ± 39.7 ng·h/mL. It also gave a Cmax [5, 21] of 14.2 ± 3 ng/mL, a Tmax [5, 21] of 5.2 ± 8.6 h and an AUC(0-t) [5, 22] of 67.3 ± 34.1 ng·h/mL. The Cmax [5, 22] was 61 ± 42.1 ng/mL, the Tmax [5, 22] was 0.6 ± 0.2 h and the AUC(0-t) [5, 23] was 75.9 ± 16 ng·h/mL. The Cmax [5, 23] was 32.1 ± 8 ng/mL and the Tmax [5, 23] was 0.5 h.
